In article PMC7990704 (Nature chemical biology, 2021):
Read-outs that look alike come from different tables or passages of the source. Values belong to the compound of their own block, whether it stands above or below them.

Columns and labels:
Cdk2 [1] = target: T1, Cdk2 (Homo sapiens, UniProt P24941, A93C/C118A/C177S/R157C); assay type: binding
Cdk2 [2] = target: T1, Cdk2
pCdk4:cyclinD = pCdk4:cyclinD (Homo sapiens, UniProt P11802); assay: γ-33P radioactivity kinase assay with RB as substrate and 10 μM ATP; assay type: biochemical
cells = conditions: cited from earlier work
Cdk2 [3] = target: Cdk2 (Homo sapiens, UniProt P24941, A93C/C118A/C177S/S46C)
Cdk2 [4] = test system: Cdk2; set-up: species or system Human

pCdk4:cyclinD, sequence (P11802 whole entry): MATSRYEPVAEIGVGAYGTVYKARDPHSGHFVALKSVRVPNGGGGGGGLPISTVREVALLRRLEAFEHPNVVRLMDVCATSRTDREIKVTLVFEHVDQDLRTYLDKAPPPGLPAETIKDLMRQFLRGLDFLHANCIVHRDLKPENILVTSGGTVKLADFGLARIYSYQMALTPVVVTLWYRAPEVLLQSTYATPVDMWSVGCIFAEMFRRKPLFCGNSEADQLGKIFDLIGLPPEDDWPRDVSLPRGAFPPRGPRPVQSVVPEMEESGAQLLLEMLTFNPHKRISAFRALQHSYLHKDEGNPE
pCdk4:cyclinD, sequence (P24385 whole entry partner): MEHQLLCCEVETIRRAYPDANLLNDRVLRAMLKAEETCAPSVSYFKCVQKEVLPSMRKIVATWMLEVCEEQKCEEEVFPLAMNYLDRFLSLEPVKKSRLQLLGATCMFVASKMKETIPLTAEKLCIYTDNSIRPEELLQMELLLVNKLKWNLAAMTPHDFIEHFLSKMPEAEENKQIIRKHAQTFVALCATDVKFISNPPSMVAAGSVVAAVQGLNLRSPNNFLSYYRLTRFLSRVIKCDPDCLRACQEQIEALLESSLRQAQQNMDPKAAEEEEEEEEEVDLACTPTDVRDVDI

Compound: Nc1ncnc2c1ncn2[C@@H]1O[C@H](COP(=O)(O)OP(=O)(O)O)[C@@H](O)[C@H]1O [ADP]
conformational effect on the A-loop (DEER) (Cdk2 [2]; monomeric Cdk2, inhibitor 250 µM): promoted the Aloop-out state

Compound: CCN1CCN(Cc2ccc(Nc3ncc(F)c(-c4cc(F)c5nc(C)n(C(C)C)c5c4)n3)nc2)CC1 [abemaciclib]
potency for Cdk4 compared with palbociclib or ribociclib (pCdk4:cyclinD): greater potency
Cdk1 substrate phosphorylation in cells (cells): blocks Cdk1 substrate phosphorylation
cell cycle effect in cells (cells): triggers a G2 arrest

Compound: CN1CC[C@H](c2c(O)cc(O)c3c(=O)cc(-c4ccccc4Cl)oc23)[C@H](O)C1 [flavopiridol]
binding cooperativity between inhibitor and cyclin (Cdk2 [1]): 50 fold
conformational effect on the A-loop (DEER) (Cdk2 [2]): increased the Aloop-out1 subpopulation
conformational effect on the αC-helix (DEER) (Cdk2 [3]): population shifts toward the αC-in state
conformational effect on the A-loop (DEER) (Cdk2 [4]): promoted the Aloop-out2 subpopulation

The next lines start with results.

effect on the Aloop-in/out equilibrium (FRET) (Cdk2 [1]; Fig. 4d): did not promote the Aloop-out state
Compound: CC(=O)c1c(C)c2cnc(Nc3ccc(N4CCNCC4)cn3)nc2n(C2CCCC2)c1=O [palbociclib]
binding cooperativity with cyclin (in words) (Cdk2 [1]; Fig. 4d, cyclinA): lacked substantial binding cooperativity with cyclin

effect on the Aloop-in/out equilibrium (FRET) (Cdk2 [1]): did not promote the Aloop-out state
Compound: CN(C)C(=O)c1cc2cnc(Nc3ccc(N4CCNCC4)cn3)nc2n1C1CCCC1 [ribociclib]
binding cooperativity with cyclin (in words) (Cdk2 [1]): lacked substantial binding cooperativity with cyclin
